For assay [1], the system named is cellulite-affected skin. As to the kind of experiment: topical treatment of cellulite-affected skin on thighs and buttocks of female persons by gliding a solid salt block. It is filed as in vivo, human.
Assay [2] has as its system cellulite-affected skin. As to the kind of experiment: topical treatment of cellulite-affected skin on the sides of a test subject by gliding a solid salt block. It is filed as in vivo, human. Conditions: person. From the text:
[…] This person may be a afflicted with cellulite on their sides, between their armpits and their waist.
Rather, […] sides are left moistened. Then, […] areas of his sides, by very gently gliding the block in dabbing motions, circular motions, up and down motions, or zigzag motions (the motions being insufficient to cause debridement and abrasion of the affected skin) on the moistened areas for about 15 to about 30 seconds. […]
This once daily application is continued for 5 weeks.

Molecules are shown by their SMILES.

On to `[Cl-].[Na+]` [NaCl, sodium chloride], for which the “state of cellulite on continued application” value is “remained free of cellulite” with cellulite-affected skin [1] (female, continued once per day application after 5 weeks); “remain smooth and free of cellulite” in the assay with cellulite-affected skin [2] (continued once per day application after 5 weeks). In addition, in the assay on cellulite-affected skin [1] (person, pre-moistened skin, once daily application for about 15 to 30 seconds, end of 2 weeks), the “state of cellulite at the end of 2 weeks” value is “alleviated”. The “state of cellulite at the end of 5 weeks” value in the assay with cellulite-affected skin [1] (person, pre-moistened skin, once daily application, end of 5 weeks) is on record as “completely eliminated”; in the assay on cellulite-affected skin [2] (pre-moistened skin, once daily, end of 5 weeks) it was “completely eliminated”.
